The results in this text go back to US20100204275A1 (published 2010).

The structures appear in SMILES notation. Counter-ions that a name gives are not always drawn.

As a reminder, the melting point is the temperature, or range, at which the solid turns liquid.

As to `CCC(=O)N(CC1CCNCC1)c1ccc2cc(OC)ccc2c1.O=C(O)C(F)(F)F`, the melting point was in the range of 168 to 170 °C.

Take `CCC(=O)N(CC1CCNCC1)c1ccc2cc(OCc3ccccc3)ccc2c1.O=C(O)C(F)(F)F`: the melting point lay within 151 to 153 °C.

Compound `CCC(=O)N(CC1CCNCC1)c1cccc(Cl)c1` (as salt: salt) had a melting point of 94 to 96 °C.

In the case of `COCC(=O)N(CC1CCNCC1)c1ccc(Cl)c(Cl)c1` (as salt: salt), the melting point fell in the range of 115 to 117 °C.

With `CCC(=O)N(CC1CCNCC1)c1ccccc1` (as salt: trifluoroacetic acid salt), the melting point was in the range of 98 to 100 °C.

Turning to `CCC(=O)N(CC1CCNCC1)c1ccccn1` (as salt: trifluoroacetic acid salt), the melting point is 108 to 110 °C.

For the compound `CCC(=O)N(CC1CCNCC1)c1ccc(Cl)cn1` (as salt: trifluoroacetic acid salt), the melting point lay in the range of 134 to 136 °C.

For the compound `CC(=O)N(CC1CCNCC1)c1ccc(Cl)c(Cl)c1` (as salt: trifluoroacetic acid salt), the melting point was in the range of 172 to 174 °C.
